# In ChEMBL document CHEMBL1129203, “Structure-activity relationships in 3-oxo-1,4-benzodiazepine-2-acetic acid GPIIb/IIIa antagonists. The 2-benzazepine series” (Bioorg Med Chem Lett, 1996):
# Assays:
# [1] = organism: Homo sapiens; test: In vitro inhibition of platelet aggregation in human platelet-rich plasma induced by ADP; assay type: functional
# [2] = target: Integrin alpha-IIb/beta-3 (Homo sapiens, UniProt P05106+P08514); test: In vitro binding affinity against human alpha IIb beta-3 integrin; assay type: protein-complex assay
# Chain of Integrin alpha-IIb/beta-3 (P05106 27-788 limits assumed): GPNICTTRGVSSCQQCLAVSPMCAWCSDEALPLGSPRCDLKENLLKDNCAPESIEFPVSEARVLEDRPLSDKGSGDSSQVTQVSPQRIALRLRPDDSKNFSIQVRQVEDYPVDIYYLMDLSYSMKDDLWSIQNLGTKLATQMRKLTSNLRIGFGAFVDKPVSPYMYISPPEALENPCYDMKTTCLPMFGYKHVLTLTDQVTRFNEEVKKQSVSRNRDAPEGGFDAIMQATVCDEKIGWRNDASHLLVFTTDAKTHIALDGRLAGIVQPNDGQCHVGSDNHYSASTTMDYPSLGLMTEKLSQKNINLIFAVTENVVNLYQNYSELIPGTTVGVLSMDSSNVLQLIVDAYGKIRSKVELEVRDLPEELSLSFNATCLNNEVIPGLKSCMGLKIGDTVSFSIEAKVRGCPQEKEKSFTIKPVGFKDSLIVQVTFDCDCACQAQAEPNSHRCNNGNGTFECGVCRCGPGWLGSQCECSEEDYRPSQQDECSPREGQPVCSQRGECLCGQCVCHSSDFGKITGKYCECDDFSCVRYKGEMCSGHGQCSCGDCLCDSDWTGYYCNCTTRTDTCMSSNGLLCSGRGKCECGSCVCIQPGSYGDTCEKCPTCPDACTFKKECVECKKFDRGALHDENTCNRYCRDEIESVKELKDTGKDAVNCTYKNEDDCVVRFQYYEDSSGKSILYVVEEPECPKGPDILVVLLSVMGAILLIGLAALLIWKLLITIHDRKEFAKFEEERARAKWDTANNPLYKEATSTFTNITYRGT
# Chain of Integrin alpha-IIb/beta-3 (P08514 32-887 limits assumed): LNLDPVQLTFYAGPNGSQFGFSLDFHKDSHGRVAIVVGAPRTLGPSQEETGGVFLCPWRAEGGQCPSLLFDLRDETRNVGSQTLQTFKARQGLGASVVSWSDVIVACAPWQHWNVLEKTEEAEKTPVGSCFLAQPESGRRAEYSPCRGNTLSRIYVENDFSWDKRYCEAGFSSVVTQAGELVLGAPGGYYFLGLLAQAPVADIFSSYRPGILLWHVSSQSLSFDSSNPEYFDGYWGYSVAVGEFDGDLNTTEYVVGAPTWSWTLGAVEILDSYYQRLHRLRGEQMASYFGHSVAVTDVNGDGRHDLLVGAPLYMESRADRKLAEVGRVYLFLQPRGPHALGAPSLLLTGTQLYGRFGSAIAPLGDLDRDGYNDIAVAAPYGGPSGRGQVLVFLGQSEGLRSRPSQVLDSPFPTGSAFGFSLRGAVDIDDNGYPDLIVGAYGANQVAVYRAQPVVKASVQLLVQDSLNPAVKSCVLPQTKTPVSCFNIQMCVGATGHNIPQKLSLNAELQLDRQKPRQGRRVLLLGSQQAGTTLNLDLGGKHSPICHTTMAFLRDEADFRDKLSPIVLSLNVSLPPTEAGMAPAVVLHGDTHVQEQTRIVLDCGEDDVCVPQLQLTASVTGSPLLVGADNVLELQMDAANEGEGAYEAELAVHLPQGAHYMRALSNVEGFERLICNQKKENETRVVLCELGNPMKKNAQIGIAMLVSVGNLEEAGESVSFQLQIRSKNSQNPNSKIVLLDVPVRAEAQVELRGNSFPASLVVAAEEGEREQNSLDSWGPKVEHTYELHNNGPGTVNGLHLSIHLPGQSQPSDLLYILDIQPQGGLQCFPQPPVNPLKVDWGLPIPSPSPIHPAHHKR
# Chain of Integrin alpha-IIb/beta-3 (P08514 891-1039 limits assumed): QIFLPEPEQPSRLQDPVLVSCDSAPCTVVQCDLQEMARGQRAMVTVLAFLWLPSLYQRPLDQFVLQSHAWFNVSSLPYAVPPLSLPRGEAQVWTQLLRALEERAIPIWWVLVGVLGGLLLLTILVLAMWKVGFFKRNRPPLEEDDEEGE
Compound,IC50 [1] [nM],Ki [2] [nM]
N=C(N)c1ccc(NC(=O)c2ccc3c(c2)NC(CC(=O)O)C(=O)N(CCc2ccccc2)C3)cc1 (configuration not stated),8,
CN(CCC1CCNCC1)C(=O)c1ccc2c(c1)CC(CC(=O)O)C(=O)N(CCc1cccs1)C2 (configuration not stated),18,2.5
CN(CCC1CCNCC1)C(=O)c1ccc2c(c1)CC(CC(=O)O)C(=O)N(CCCCCc1ccccc1)C2 (configuration not stated),8,2
CN(CCC1CCNCC1)C(=O)c1ccc2c(c1)CC(CC(=O)O)C(=O)N(C)C2 (configuration not stated),33,1.5
CC(C)N1Cc2ccc(C(=O)N(C)CCC3CCNCC3)cc2CC(CC(=O)O)C1=O (configuration not stated),37,2
CN(CCC1CCNCC1)C(=O)c1ccc2c(c1)CC(CC(=O)O)C(=O)N(C1CCCCC1)C2 (configuration not stated),49,1.3
CN(CCC1CCNCC1)C(=O)c1ccc2c(c1)CC(CC(=O)O)C(=O)NC2 (configuration not stated),71,3.2
CN(CCC1CCNCC1)C(=O)c1ccc2c(c1)CC(CC(=O)O)C(=O)N(CCc1ccccc1)C2 (configuration not stated),13,3
CN(CCC1CCNCC1)C(=O)c1ccc2c(c1)CC(CCC(=O)O)C(=O)N(CCc1ccccc1)C2 (configuration not stated),7790,650
CN(CCC1CCNCC1)C(=O)c1ccc2c(c1)CC(CC(=O)O)C(=O)N(Cc1ccccc1)C2 (configuration not stated),36,1
CN(CCC1CCNCC1)C(=O)c1ccc2c(c1)CC(CC(=O)O)C(=O)N(CCC1CCCCC1)C2 (configuration not stated),27,2
CC(C)CCN1Cc2ccc(C(=O)N(C)CCC3CCNCC3)cc2CC(CC(=O)O)C1=O (configuration not stated),32,1.5
CN(C(=O)c1ccc2c(c1)CC(CC(=O)O)C(=O)N(CCc1ccccc1)C2)c1ccc(C(=N)N)cc1 (configuration not stated),12,1.5
CN(CCC1CCNCC1)C(=O)c1ccc2c(c1)CC(CC(=O)O)C(=O)N(CCc1ccc(F)cc1)C2 (configuration not stated),27,1.7
CN(CCC1CCNCC1)C(=O)c1ccc2c(c1)CC(CC(=O)O)C(=O)N(CCC(C)(C)C)C2 (configuration not stated),27,2
CCCCN1Cc2ccc(C(=O)N(C)CCC3CCNCC3)cc2CC(CC(=O)O)C1=O (configuration not stated),31,1.5
CN(C(=O)c1ccc2c(c1)NC(CC(=O)O)C(=O)N(CCc1ccccc1)C2)c1ccc(C(=N)N)cc1 (configuration not stated),28,
